The source of these data is US4966914A, “Oculoselective beta-blockers as antiglaucoma agents” (E. I. Du Pont de Nemours and Company, priority 1988, dated 1990).

Like-named read-outs stand apart in the source and are kept apart here.

One data set deals with T1, ATRIA (Cavia porcellus, UniProt H0W3H1).
T1 construct: ATRIA; from tissue
In words: In vitro potency (pA2), beta-blocking, atria. It is filed as cell-based. As to conditions: Table 3; atria; read-out: pA2 ATRIA (converted). The protocol:
The in vitro potency (pA2), in vivo potency and duration of action (DOA) of the compounds of the present invention are recorded in Tables 2 to 4. These pharmacological activities were determined using the methods described in U.S. patent 4,582,855 issued Apr.

The nature of data set [1]: Ocular bioavailability in rabbits. The following applies: for Absorption across the cornea: 0.25% Timolol or 0.5% compound 1, topical; for Tmax: rabbit, topical or ocular; for Area under the concentration time curve (AUC0-240'), AH / Area under the concentration time curve (AUC0-240'), I-CBC / Area under the concentration time curve (AUC0-240'), cornea: 0-240 min. It is filed as in vivo, New Zealand White Rabbits. As to the method: The ocular bioavailability of Timolol and compound 1 (monopivaloyl ester prodrug of compound 2) was evaluated in New Zealand White Rabbits. Fifty μL of a solution of 0.25% Timolol or 0.5% compound 1 (both in the same vehicle) were administered onto the cornea of both eyes of 48 rabbits (24 rabbits/compound). At 5, 15, 30, 60, 120, 180, 240, and 360 minutes after dosing, 3 rabbits (6 eyes)/compound were killed. The cornea, aqueous humor (AH), iris-ciliary body complex (I-CBC) were quickly removed from the eyes, weighed and processed to determine tissue levels of Timolol or compound 1 and compound 2.

Data set [2] concerns isoproterenol-induced changes in heart rate or diastolic blood pressure. In words: Effect on systemic beta-blockade upon topical administration (isoproterenol-induced changes in heart rate or diastolic blood pressure). The format is in vivo, Mongrel dogs. As to conditions: for Diastolic blood pressure response to isoproterenol: from-to; for Diastolic blood pressure (DBP) / Heart rate (HR): Table 1, 0.5%; for Summary: BP / Summary: BP change / Summary: HR change: Table 1 summary; for Summary: BP: from ISO only to end of experiment; for Summary: BP change / Summary: HR change: given as "down". The protocol: Mongrel dogs were anesthetized and control readings were made at -45 and -30 minutes. Following the -30 minute reading, an infusion of isoproterenol (0.5 μg/kg/min) was begun and maintained during the course of the experiment. Two readings of pretreatment isoproterenol responses were made at […] and at zero minutes.
At zero minutes, a 50 μL sample of test compound was administered topically. […] Heart rate was obtained directly from the strip chart recording.

[3] abbreviates: aqueous humor, AH, 0.25% Timolol or 0.5% compound 1, read-out: Time of peak level in aqueous humor (AH) (converted).
Where [4] appears, read: cornea, 0.25% Timolol or 0.5% compound 1, read-out: Time of peak level in cornea (converted).
The mark [5] stands for this setting: 50 μL, 0.25% solution, single or repeated topical applications.
[6] abbreviates: 15 min post-treatment, isoproterenol infusion.
Setting [7] is: 30 min post-treatment, isoproterenol infusion.
Where [8] appears, read: 45 min post-treatment, isoproterenol infusion.
Where [9] appears, read: 60 min post-treatment (dose), isoproterenol infusion.
Where [10] appears, read: 75 min post-treatment, isoproterenol infusion.
Setting [11] is: 90 min post-treatment, isoproterenol infusion.
Where [12] appears, read: 105 min post-treatment, isoproterenol infusion.
[13] abbreviates: 120 min post-treatment (dose), isoproterenol infusion.
The mark [14] stands for this setting: 135 min post-treatment, isoproterenol infusion.
Setting [15] is: 150 min post-treatment, isoproterenol infusion.
Where [16] appears, read: 165 min post-treatment, isoproterenol infusion.
[17] abbreviates: 180 min post-treatment, isoproterenol infusion.
The mark [18] stands for this setting: AH, 0.25% Timolol or 0.5% compound 1.
Setting [19] is: I-CBC, 0.25% Timolol or 0.5% compound 1.
[20] abbreviates: cornea, 0.25% Timolol or 0.5% compound 1.
The mark [21] stands for this setting: 50 μL, 0.25% solution, single topical application.

T1 sequence (H0W3H1 1-470): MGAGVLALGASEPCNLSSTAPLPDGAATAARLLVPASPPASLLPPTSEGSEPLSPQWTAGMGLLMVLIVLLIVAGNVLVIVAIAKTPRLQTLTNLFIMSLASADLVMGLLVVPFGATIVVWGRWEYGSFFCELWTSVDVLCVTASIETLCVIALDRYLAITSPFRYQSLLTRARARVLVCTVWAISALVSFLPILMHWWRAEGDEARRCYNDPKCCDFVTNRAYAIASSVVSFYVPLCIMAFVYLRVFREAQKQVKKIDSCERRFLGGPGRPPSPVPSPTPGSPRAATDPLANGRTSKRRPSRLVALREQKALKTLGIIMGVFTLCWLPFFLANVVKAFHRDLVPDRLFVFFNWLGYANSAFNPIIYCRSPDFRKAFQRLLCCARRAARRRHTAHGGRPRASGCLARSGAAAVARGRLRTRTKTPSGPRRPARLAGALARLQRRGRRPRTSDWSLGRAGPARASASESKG

In the case of `COc1ccc(C(=O)NCC(C)(C)NCC(O)COC(=O)c2cc(O)c(O)cc2C)cc1` (stereo not shown), the Kb at ATRIA was 31.6 nM.
Same read-out and setting: the result for `CC(C)(CNC(=O)C1CCCCC1)NCC(O)COC(=O)c1ccc(O)c(O)c1` (stereo not shown) reads 6.31 nM.
The same measure, in the same setting: the result for `Cc1cc(O)c(O)cc1C(=O)OCC(O)CNC(C)(C)CNC(=O)c1ccccc1F` (stereo not shown) reads 100 nM; that for `Cc1cc(O)c(O)cc1C(=O)OCC(O)CNC(C)(C)CNC(=O)c1ccoc1` (stereo not shown), 25.1 nM.
For the compound `Cc1cc(O)c(O)cc1C(=O)OCC(CNC(C)(C)CNC(=O)C1CCOC1)OC(=O)C(C)(C)C` (stereo not shown) [Compound 1], the “Absorption across the cornea” value in data set [1] is “rapidly absorbed across the cornea”. For the same compound, the “Metabolism of compound 1 to compound 2” value in data set [1] (0.5% compound 1, topical) was “rapid metabolism of compound 1 to compound 2”. The “AUC in AH relative to AUC of Timolol in AH” value in data set [1] (0.5% compound 1 vs 0.25% Timolol, greater than Timolol) turned out to be 3 ×. The “Detectability in I-CBC” value in data set [1] (I-CBC, 0.5% compound 1) is given as “not detectable”. Besides, the results for the Tmax in data set [1] (setting [3]) and in data set [1] (setting [4]) were 30 min and 5 min, respectively. Also, the “Effect on diastolic blood pressure response to isoproterenol” value in data set [2] (50 μL at 0.5 or 1.0% solution) is “without any significant effect”; in data set [2] (setting [5]), “no effect”. Further, the “Systemic beta-blockade of isoproterenol-induced increase in heart rate” value in data set [2] (50 μL at 0.5 or 1.0% solution) is recorded as “no significant systemic beta-blockade”. For the same compound, the “Diastolic blood pressure response to isoproterenol” value in data set [2] (50 μL at 0.5 or 1.0% solution) is 58-63 mmHg. Moreover, the “Effect on heart rate response to isoproterenol” value in data set [2] (setting [5]) is listed as “no effect”. The “Diastolic blood pressure (DBP)” value in data set [2] (0 min, ISO only) is recorded as 58 mmHg; in data set [2] (setting [6]), 56 mmHg; in data set [2] (setting [7]), 55 mmHg; in data set [2] (setting [8]), 54 mmHg; in data set [2] (setting [9]), 55 mmHg; in data set [2] (setting [10]), 55 mmHg. In addition, the “Diastolic blood pressure (DBP)” value was found to be 56 mmHg in data set [2] (setting [11]); 57 mmHg in data set [2] (setting [12]); 59 mmHg in data set [2] (setting [13]); 61 mmHg in data set [2] (setting [14]); 60 mmHg in data set [2] (setting [15]); 60 mmHg in data set [2] (setting [16]). Besides, the “Diastolic blood pressure (DBP)” value in data set [2] (setting [17]) is 63 mmHg; in data set [2] (-30 min, baseline) it was 87 mmHg. Moreover, the “Heart rate (HR)” value amounted to 199 bpm in data set [2] (0 min, ISO only); 195 bpm in data set [2] (setting [6]); 192 bpm in data set [2] (setting [7]); 188 bpm in data set [2] (setting [8]); 189 bpm in data set [2] (setting [9]); 189 bpm in data set [2] (setting [10]). The “Heart rate (HR)” value was determined as 189 bpm in data set [2] (setting [11]); 190 bpm in data set [2] (setting [12]); 192 bpm in data set [2] (setting [13]); 192 bpm in data set [2] (setting [14]); 192 bpm in data set [2] (setting [15]); 192 bpm in data set [2] (setting [16]). Moreover, the “Heart rate (HR)” value in data set [2] (setting [17]) is given as 193 bpm; in data set [2] (-30 min, baseline), 143 bpm. Moreover, the “Summary: BP” value in data set [2] is 58-63 mmHg. In data set [2], the “Summary: BP change” value worked out at 5 mmHg. In addition, in data set [2], the “Summary: HR change” value came to 6 bpm. For the same compound, the “Systemic beta-blocking activity as compared to Timolol” value in data set [2] (conclusion in words) was “has systemic beta-blocking activity as compared to Timolol”. Also, the “Selectivity of peripheral effects” value in data set [2] (high concentration, unlike Timolol) was “selective for beta-1 (heart rate) responses”.
For `Cc1cc(O)c(O)cc1C(=O)OCC(O)CNC(C)(C)CNC(=O)C1CCOC1` (stereo not shown) [Compound 2], the “Area under the concentration time curve (AUC0-240'), AH” value in data set [1] (setting [18]) is recorded as 27,377 ng/100 μL/min. In addition, the “Area under the concentration time curve (AUC0-240'), I-CBC” value in data set [1] (setting [19]) is recorded as 2,981 ng/50 mg/min. For the same compound, the “Area under the concentration time curve (AUC0-240'), cornea” value in data set [1] (setting [20]) is 95,789 ng/50 mg/min. In addition, the “Stability in rabbit ocular tissues” value in data set [1] (rabbit ocular tissues) is given as “stable in rabbit ocular tissues”.
As to `CC(=O)NCC(C)(C)NCC(O)COC(=O)c1cc(O)c(O)cc1C` (stereo not shown) [Me CH3], the Kb on ATRIA is 25.1 nM.
Still for that read-out and setting: the result for `Cc1cc(O)c(O)cc1C(=O)OCC(O)CNC(C)(C)CNC(N)=O` (stereo not shown) [Me NH2] reads 1.26 nM.
For the compound `CC(C)(C)NC[C@H](O)COc1nsnc1N1CCOCC1` [Timolol, reference compound], the “Absorption across the cornea” value in data set [1] is “rapidly absorbed across the cornea into the AH and I-CBC”. For the same compound, in data set [1] (setting [18]), the “Area under the concentration time curve (AUC0-240'), AH” value is on record as 9,022 ng/100 μL/min. For the same compound, in data set [1] (setting [18]), the “Peak level in aqueous humor (AH)” value amounted to 131 ng/100 μL. Besides, in data set [1] (setting [19]), the “Area under the concentration time curve (AUC0-240'), I-CBC” value is on record as 533 ng/50 mg/min. Moreover, in data set [1] (I-CBC, 0.25% Timolol), the “Peak level in iris-ciliary body complex (I-CBC)” value came out at 58 ng/50 mg. The “Area under the concentration time curve (AUC0-240'), cornea” value in data set [1] (setting [20]) is reported as 68,293 ng/50 mg/min. The same compound gave a Peak cornea level in data set [1] (cornea, 50 μL onto cornea, 0.25% Timolol or 0.5% compound 1) of 770 ng/50 mg. For the same compound, the Tmax is 30 min in data set [1] (setting [3]); 30 min in data set [1] (iris-ciliary body, I-CBC, 0.25% Timolol, read-out: Time of peak level in I-CBC (converted)); 5 min in data set [1] (setting [4]). For the same compound, the “Antagonism of diastolic blood pressure response to isoproterenol” value in data set [2] (setting [21]) is reported as “long lasting antagonism”. In addition, the “Effect on heart rate response to isoproterenol” value in data set [2] (setting [21]) was “significant inhibitory effect”. In addition, in data set [2] (setting [21]), the “Diastolic blood pressure response to isoproterenol” value is recorded as 72-107 mmHg. The “Diastolic blood pressure (DBP)” value is on record as 72 mmHg in data set [2] (0 min, ISO only); 93 mmHg in data set [2] (setting [6]); 94 mmHg in data set [2] (setting [7]); 96 mmHg in data set [2] (setting [8]); 99 mmHg in data set [2] (setting [9]); 102 mmHg in data set [2] (setting [10]). For the same compound, the “Diastolic blood pressure (DBP)” value in data set [2] (setting [11]) was determined as 103 mmHg; in data set [2] (setting [12]), 104 mmHg; in data set [2] (setting [13]) it was 105 mmHg; in data set [2] (setting [14]) it was 107 mmHg; in data set [2] (setting [15]), 107 mmHg; in data set [2] (setting [16]), 105 mmHg. Also, the “Diastolic blood pressure (DBP)” value in data set [2] (setting [17]) is listed as 107 mmHg. The “Heart rate (HR)” value is 197 bpm in data set [2] (0 min, ISO only); 175 bpm in data set [2] (setting [6]); 158 bpm in data set [2] (setting [7]); 155 bpm in data set [2] (setting [8]); 157 bpm in data set [2] (setting [9]); 157 bpm in data set [2] (setting [10]). The “Heart rate (HR)” value turned out to be 152 bpm in data set [2] (setting [11]); 153 bpm in data set [2] (setting [12]); 157 bpm in data set [2] (setting [13]); 154 bpm in data set [2] (setting [14]); 153 bpm in data set [2] (setting [15]); 153 bpm in data set [2] (setting [16]). The “Heart rate (HR)” value in data set [2] (setting [17]) is given as 159 bpm; in data set [2] (-30 min, baseline), 144 bpm. For the same compound, the “Summary: BP” value in data set [2] is 71-107 mmHg. Further, in data set [2], the “Summary: BP change” value is recorded as 35 mmHg. Also, the “Summary: HR change” value in data set [2] was found to be 38 bpm. In addition, the “Systemic beta-blockade” value in data set [2] (four topical applications, 50 μL, 0.25% solution, 60 minute intervals) is listed as “prolonged systemic beta-blockade”.
`COc1cc(O)c(O)cc1C(=O)OCC(O)CNC(C)(C)CNC(=O)C(C)C` (stereo not shown) [drawing 30]: the Kb on ATRIA is 12.6 nM.
Regarding `CCOc1cc(O)c(O)cc1C(=O)OCC(O)CNC(C)(C)CNC(=O)C(C)C` (stereo not shown) [drawing 32], at ATRIA, the Kb is 20 nM.
